Columns and labels:
TTR [1] = experiment: TTR editing in primary human hepatocytes electroporated with Spy Cas9 protein loaded with dgRNAs (Table 7); format: cell-based; conditions: dgRNA electroporated with Spy Cas9 protein (RNP)
Summary of the method: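 Editing efficiency is the fraction of NGS reads carrying insertions, deletions or substitutions at the TTR target, measured on MiSeq amplicons from DNA harvested 24, 48 or 72 h post-delivery. Cas9–dgRNA ribonucleoprotein was nucleofected (P3 buffer, EX-147) into primary human or cyno hepatocytes.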

TTR [2] = experiment: TTR editing in HEK293_Cas9 cells transfected with dgRNAs (Table 4); format: cell-based, human; conditions: HEK293_Cas9 cells (constitutively express Spy Cas9) transfected with dgRNAs
Description: HEK293 Cas9 cell line. The human embryonic kidney adenocarcinoma cell line HEK293 constitutively expressing Spy Cas9 (“HEK293_Cas9”) was cultured in DMEM media supplemented with 10% fetal bovine serum and 500 μg/ml G418. Cells were plated at a density of 10,000 cells/well in a 96-well plate 24 hours prior to transfection. Cells were transfected with Lipofectamine RNAiMAX (ThermoFisher, Cat. 13778150) per the manufacturer's protocol. Cells were transfected with a lipoplex containing individual crRNA (25 nM), trRNA (25 nM), Lipofectamine RNAiMAX (0.3 μL/well) and OptiMem.
Transfected cells were harvested post-transfection at 24, 48, or 72 hours. The genomic DNA was extracted from each well of a 96-well plate using 50 μL/well BuccalAmp DNA Extraction solution (Epicentre, Cat. QE09050) per manufacturer's protocol. All DNA samples were subjected to PCR and subsequent NGS analyses, as described herein.
To quantitatively determine the efficiency of editing at the target location in the genome, sequencing was utilized to identify the presence of insertions and deletions introduced by gene editing.
Primers were designed around the target site within the gene of interest (e.g. TTR), and the genomic area of interest was amplified.
Additional PCR was performed per the manufacturer's protocols (Illumina) to add chemistry for sequencing. The amplicons were sequenced on an Illumina MiSeq instrument. The reads were aligned to a reference genome (e.g., the human reference genome (hg38), the cynomologus reference genome (mf5), the rat reference genome (rn6), or the mouse reference genome (mm10)) after eliminating those having low quality scores. The resulting files containing the reads were mapped to the reference genome (BAM files), where reads that overlapped the target region of interest were selected and the number of wild type reads versus the number of reads which contain an insertion, substitution, or deletion was calculated.
The editing percentage (e.g., the “editing efficiency” or “percent editing” or “indel frequency”) is defined as the total number of sequence reads with insertions/deletions (“indels”) or substitutions over the total number of sequence reads, including wild type.
Guides in dgRNA format targeting human TTR and the cynomologus matched sequences were delivered to HEK293 Cas9, HUH7 and HepG2 cell lines, as well as primary human hepatocytes and primary cynomolgus monkey hepatocytes as described in Example 1. Percent editing was determined for crRNAs comprising each guide sequence across each cell type and the guide sequences were then rank ordered based on highest % edit. The screening data for the guide sequences in Table 1 in all five cell lines are listed below (Table 4 through 11).

TTR [3] = experiment: TTR editing in primary human hepatocytes transfected with Spy Cas9 mRNA and dgRNAs (Table 9); format: cell-based; conditions: dgRNA co-transfected with Spy Cas9 mRNA (SEQ ID NO:2)
Summary of the method: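 PHH sequentially lipofected with Spy Cas9 mRNA (100 ng), then crRNA plus tracrRNA (25 nM each) dual-guide lipoplex. Cells harvested 24, 48 or 72 h post-transfection; TTR target amplicons sequenced on Illumina MiSeq, editing given as percent reads with indels or substitutions over total reads.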

Sequence	Avg % Deletion (TTR [1]) [%]	Avg % Edit (TTR [1]) [%]	Avg % Insert (TTR [1]) [%]	Avg % Deletion (TTR [2]) [%]	Avg % Edit (TTR [2]) [%]	Avg % Insert (TTR [2]) [%]	Avg % Deletion (TTR [3]) [%]	Avg % Edit (TTR [3]) [%]	Avg % Insert (TTR [3]) [%]
AAAGGCUGCUGAUGACACCU (tested as dual guide RNA, chemistry not given here) [CR003353]	2.63	84.83	82.23	21.32	25.03	3.71	4.43	53.73	49.50
AAAGUUCUAGAUGCUGUCCG (tested as dual guide RNA, chemistry not given here) [CR003346]	14.83	35.67	20.83	15.30	48.33	33.03	14.33	19.97	5.63
AAAUAGACACCAAAUCUUAC (tested as dual guide RNA, chemistry not given here) [CR003366]	3.10	34.70	31.63	37.26	47.36	10.10	4.07	24.53	20.47
AAGUGCCUUCCAGUAAGAUU (tested as dual guide RNA, chemistry not given here) [CR003368]	0.80	28.47	27.63	36.61	40.35	3.73	0.60	11.10	10.53
AAUAGGAGUAGGGGCUCAGC (tested as dual guide RNA, chemistry not given here) [CR003384]	0.23	1.87	1.73	16.00	17.45	1.45	0.20	1.70	1.50
ACACAAAUACCAGUCCAGCA (tested as dual guide RNA, chemistry not given here) [CR003339]	34.07	43.00	8.93	6.98	56.37	49.39	34.23	36.43	2.27
ACCUCUGCAUGCUCAUGGAA (tested as dual guide RNA, chemistry not given here) [CR003371]	1.87	16.20	14.47	21.76	25.60	3.84	0.73	3.40	2.67
ACGUGUCUUCUCUACACCCA (tested as dual guide RNA, chemistry not given here) [CR005302]	1.00	61.10	60.10	–	–	–	1.13	34.80	33.67
ACUGAGGAGGAAUUUGUAGA (tested as dual guide RNA, chemistry not given here) [CR003363]	1.63	9.43	7.80	16.26	31.03	14.77	4.93	16.70	11.80
AGACACCAAAUCUUACUGGA (tested as dual guide RNA, chemistry not given here) [CR003367]	16.37	39.20	22.93	18.67	47.11	28.44	23.37	37.33	14.03
AGCCUUUCUGAACACAUGCA (tested as dual guide RNA, chemistry not given here) [CR003351]	20.97	51.77	30.83	21.24	49.67	28.42	16.37	26.50	10.20
AGGCAGUCCUGCCAUCAAUG (tested as dual guide RNA, chemistry not given here) [CR003348]	17.27	28.53	11.30	13.21	35.53	22.32	15.80	18.00	2.30
AGUCCCUCAUUCCUUGGGAU (tested as dual guide RNA, chemistry not given here) [CR003392]	0.17	4.13	4.00	20.82	21.67	0.85	0.07	2.43	2.37
AGUGAGUCUGGAGAGCUGCA (tested as dual guide RNA, chemistry not given here) [CR003359]	7.50	63.77	56.33	19.40	37.75	18.35	7.33	32.93	25.67
AUACCAGUCCAGCAAGGCAG (tested as dual guide RNA, chemistry not given here) [CR003338]	2.13	83.03	80.87	47.66	52.42	4.76	2.73	36.30	33.73
AUAGGAGUAGGGGCUCAGCA (tested as dual guide RNA, chemistry not given here) [CR003383]	5.27	8.57	3.37	15.35	40.47	25.12	13.70	15.70	2.07
AUGCAGCUCUCCAGACUCAC (tested as dual guide RNA, chemistry not given here) [CR003358]	0.80	5.70	4.93	4.14	5.44	1.29	1.17	3.90	2.73
GUCACAGAAACACUCACCGU (tested as dual guide RNA, chemistry not given here) [CR005301]	1.60	25.37	24.00	–	–	–	1.40	6.77	5.47
UGAAUCCAAGUGUCCUCUGA (tested as dual guide RNA, chemistry not given here) [CR005303]	0.53	53.57	53.07	–	–	–	0.50	35.50	35.00
